From a melting point compilation (Tetko et al.; mined from patent text by program, amines drawn as free bases though some values may be those of a salt)

Row | SMILES | melting point
1 | Cn1cc(C(=O)O)c(=O)c2c3cc(F)c(N4CCN(c5ccc(F)cc5)CC4)cc3ncc21 | 346 °C
2 | OCc1ccc(I)cc1O | 129 to 131 °C
3 | COc1ccc(C2=NN(CC(=O)Nc3cccc(-c4nnc(=O)sc4C)c3)C(=O)[C@H]3CC=CC[C@@H]23)cc1OC (relative stereo) | 157 to 161 °C
4 | CCOCCOc1ccc(-c2ccc3c(c2)C=C(C(=O)Nc2ccc(CN(C)C4CCOCC4)cc2)CCS3(=O)=O)cc1F | 212 to 214 °C
5 | O=C1NCCc2c(-c3cccnc3)[nH]c3cccc1c23 | 260 to 262 °C
6 | Cc1ccc(Cc2nc3c(nnn3C(C)CCCc3ccccc3)c(=O)[nH]2)cc1 (stereo not drawn) | 130 °C
7 | Cn1c(=O)n(Cc2ccccc2)c(=O)c2cc(C(=O)CCc3ccccc3)ccc21 | 155 °C
8 | CC(ON1C(C)(C)CC(O)CC1(C)C)C(=O)NCCCN(C)C (stereo not drawn) | 85 to 88 °C
9 | COc1cc(/C=C/C(=O)CC(=O)CC(C)(C)C)ccc1O | 130 to 132 °C
10 | COc1cc(CCCO)ccc1OCc1nc(-c2ccco2)oc1C | 99 to 100 °C
11 | CC(C)(Oc1ccc(CC(=O)Nc2cc(Cl)cc(Cl)c2)cc1)C(=O)O | 138 °C
12 | CCOc1ccc(F)c(N2Cc3cnc(NCCCCN(CC)CC)nc3N(C3CCCC3)C2=O)c1F | 129 to 130 °C
13 | O=C(O)C1CCCc2c(n(Cc3ccc(Cl)cc3)c3ccc(F)cc23)C1 (stereo not drawn) | 185 to 186 °C
14 | O=C(CCC(=O)N1CCC(c2ccc(Cl)cc2)CC1)c1ccc2c(c1)CCN(C1CCCC1)CC2 | 160 to 162 °C
15 | [O-][N+](=CCCc1ccccc1)C1CCCCC1 | 97.2 °C
16 | CCOC(=O)c1ccc(-c2cnc3c(c2)N(Cc2cc(F)ccc2F)CCN3)cc1 | 173 to 174 °C
17 | CC(C)n1nc(-c2c(Sc3ccccc3)nc(N)nc2-c2ccccc2)ccc1=O | 214 to 215 °C
18 | Cc1ccnc(N2CCN(CCc3c(C)n4c5c(cc(C(O)C(C)C)cc35)CCC4)CC2)c1 (stereo not drawn) | 140 °C
19 | CC(C)CS(=O)(=O)c1ccc(N)c(S(=O)(=O)CC(C)C)c1 | 118 to 120 °C

Row | SMILES | melting point
20 | O=CN(O)C(CCO)CS(=O)(=O)c1ccc(-c2ccc(C(F)(F)F)cc2)cc1 (stereo not drawn) | 186 to 189 °C
21 | CCOC(=O)c1cc2c(=O)n(CC)c3ccc(Cl)cc3n2c1 | 230 to 232 °C
22 | O=C1C(=Cn2ccnc2)c2ccccc2N1c1cccc(Cl)c1 | 164 to 166 °C
23 | CC(C)(Cl)C(CCn1ccnc1[N+](=O)[O-])N=O (stereo not drawn) | 96 to 97 °C
24 | CN1C(=O)N(c2ccc(C#N)c(C(F)(F)F)c2)C(=O)C1(CF)CF | 137 to 138 °C
25 | CCCCCCC(C)(C)c1ccc(C2CC(=O)C=C(C)C2)c(OCc2ccccc2)c1 (stereo not drawn) | 60 to 61 °C
26 | CCC1CC(=O)C2(C)CCC3c4ccc(OC)cc4CCC3C12 (stereo not drawn) | 125 to 129 °C
27 | CC(=O)Nc1ccc(-c2nc3c(s2)C(=O)c2ccccc2C3=O)o1 | > 260 °C
28 | CC(C)C(NC(=O)c1ccc(C(=O)NCCCC(=O)O)cc1)C(=O)N1CCCC1C(=O)NC(C(=O)C(F)(F)F)C(C)C (mixture of isomers) | 84 to 86 °C
29 | CC1CC(=O)NN=C1c1ccc2c(c1)N(C)C(=O)C(C)O2 (stereo not drawn) | 184 to 185 °C
30 | Cc1cc(O)c(C)c(C)c1NC=O | 219 to 220 °C
31 | CC(C(=O)c1ccccc1)N1CCN(c2nc3nccc(-c4ccncc4)n3n2)CC1 (stereo not drawn) | 142 to 144 °C
32 | Cc1cc(C2=NOC(c3cc(Cl)cc(Cl)c3)(C(F)(F)F)C2)ccc1C(=O)NC1CSC1 (stereo not drawn) | 158 to 159 °C
33 | COc1cc2ncnc(N3CCC(O)(CCI)CC3)c2cc1OC | 179 to 181 °C
34 | CCCCCCOc1ccc(C(=O)O)cc1Cl | 140 °C
35 | CC(=O)c1ccc(S(=O)(=O)Nc2cc(C)on2)cc1 | 189 to 190 °C
36 | CC(=O)Nc1cc2c(c(C(=O)O)c1)NCCC2 | 258 to 259 °C
37 | N#CCC(=O)Nc1ccc(-c2ncc(C(=O)O)c(O)n2)cc1 | > 280 °C

The next lines start with the values.

Row | melting point | SMILES
38 | 68 to 69 °C | CCCCCCCCCCCCCCCCCCOC[C@H](CO)OC(=O)NC
39 | 146 to 147 °C | O=C(c1ccccc1)c1ccc(Oc2ccc(S(=O)(=O)Cc3ccccc3)cn2)cc1
40 | 161 °C | CCOc1c(SC(F)(F)F)c(C(N)=O)nn1-c1c(Cl)cc(C(F)(F)F)cc1Cl
41 | 128 to 129 °C | CCC1(CC)COP(=O)(Cc2ccc(N)cc2)OC1
42 | 82 to 83 °C | COc1cc(CC(=O)NCCOCc2ccc(C)c(C)c2)ccc1O
43 | 87 to 88 °C | Fc1ccc(F)c(CC2CCN(C3CC=C(c4ccc5c(c4)OCO5)CC3)CC2)c1 (stereo not drawn)
44 | 112 to 114 °C | Cc1ncc(CO)c(NCc2ccc(-c3ccccc3-c3nnnn3C(c3ccccc3)(c3ccccc3)c3ccccc3)cc2)n1
45 | 115 to 118 °C | CCCNC(=O)[C@H](C)C[C@H](O)[C@H](CC1CCCCC1)NC(=O)[C@H](Cc1cscn1)NC(=O)[C@@H](CC(=O)N(C)Cc1ccccc1)Cc1ccccc1
46 | 141 to 142 °C | CCOC(=O)c1c(CN(CC)CC)nc2sc3ccncc3c2c1-c1ccc(OC)c(OC)c1
47 | 191 to 192 °C | CC(C)(O)c1c(F)ccc(-c2ccc3nc(-c4ccc(Cl)cc4)cn3c2)c1F
48 | 78 to 79 °C | COC(=O)c1cc(C(F)(F)F)cc(OCc2ccccc2)c1OCc1ccccc1
49 | 246 to 248 °C | COc1ccc(-c2ccc3c(C(=O)c4ccn5c4CSC5c4cccnc4)c[nH]c3c2)cc1 (stereo not drawn)
50 | 128 °C | CCCCOCCOc1ccc(-c2ccc(N3CCCC3)c(C(C)=CC(=O)O)c2)cc1
51 | 69 to 72 °C | CC(O)c1cc(Br)c(N)c(CN(C)C)c1 (stereo not drawn)
52 | 266 to 267 °C | COC(=O)c1[nH]c2cccc3c2c1CCNC3=O
53 | 180 to 181 °C | CNc1cc(F)ccc1C(=O)O

Row | melting point | SMILES
54 | 61 to 61.7 °C | FC(F)(F)c1cc(C2CCCO2)c2cccc(C(F)(F)F)c2n1 (stereo not drawn)
55 | 113 to 115 °C | Cc1cc(C(C)c2ccccc2)c(O)c(-n2nc3ccc(Cl)cc3n2)c1 (stereo not drawn)
56 | 129 to 130 °C | CN(C)CC(=O)Nc1nc(-c2ccco2)c(C(=O)C2CCOCC2)s1
57 | 83 to 85 °C | NCc1ccc2c(c1)N(C1CCN(CCc3ccc(F)cc3)CC1)CC2
58 | 192 to 193 °C | CCN(CC)C[C@@H]1CCCN1CC(=O)N1c2ccccc2C(=O)Nc2cccnc21
59 | 132 to 133 °C | CC(C)CCSc1cc(C(=O)O)cc(N)c1Oc1ccccc1
60 | 116 to 118 °C | CC(=O)OCC(C)C1=CCC2C3CC=C4CC(OC(C)=O)CC(OC(C)=O)C4(C)C3CCC12C (stereo not drawn)
61 | 108 to 110 °C | CC(=O)OC1C(OC(=O)c2cccc([N+](=O)[O-])c2)C=C(C)C(=O)CC1(C)C (stereo not drawn)
62 | 276 to 277 °C | COc1cccc2c(NCc3ccccc3C)cc(C(=O)O)nc12
63 | 138 to 139 °C | C[C@@H](Sc1ccc(O)cc1)C(=O)O
64 | 159 °C | COc1ccc(C(=O)C2C(Cl)=CC=CC2(C)Cl)cc1Br (stereo not drawn)
65 | 65 to 67 °C | OC(CNCCCCCCOCCCCc1ccccc1)c1cc(OCc2ccccc2)cc(OCc2ccccc2)c1 (stereo not drawn)
66 | 205 to 208 °C | Cn1c(Cl)c(Cl)c2cnc(NC(=O)c3ccc([C@](C)(O)CO)cc3)cc21
67 | 251 to 252 °C | CC(C)(C)c1ccc(-n2cc(C(=O)O)c(=O)c3ccc(-c4ccncc4)cc32)cc1
68 | 78 to 82 °C | CCCCN1CCSC1c1nsc2ccc(-n3c(=O)cc(C(F)(F)F)n(C)c3=O)cc12 (stereo not drawn)
